Patent publication US20060069132A1, “Azolecarboxamide herbicides” (priority 2004, published 2006)

Legend:
cocklebur = assay: Test C pre-/postemergence herbicide test; format: in vivo, Xanthium strumarium; conditions: for Cocklebur plant response rating: Preemergence, 500 g ai/ha, scale 0 to 100, 0 no effect, 100 complete control
Source text: (§1) Seeds of plant species selected from bermudagrass (Cynodon dactylon (L.) Pers.), Surinam grass (Urochloa decumbens (Staph) R. D. Webster, previously named Brachiaria decumbens Stapf), cocklebur (Xanthium strumarium L.), corn (Zea mays L.), large crabgrass (Digitaria sanguinalis (L.) Scop.), woolly cupgrass (Eriochloa villosa (Thunb.) Kunth), giant foxtail (Setaria faberi Herrm.), goosegrass (Eleusine indica (L.) Gaertn.), johnsongrass (Sorghum halepense (L.) Pers.), kochia (Kochia scoparia (L.) Schrad.), lambsquarters (Chenopodium album L.), morningglory (Ipomoea coccinea L.), eastern black nightshade (Solanum ptycanthum Dunal), yellow nutsedge (Cyperus esculentus L.), pigweed (Amaranthus retroflexus L.), common ragweed (Ambrosia elatior L.), soybean (Glycine max (L.) Merr.), common (oilseed) sunflower (Helianthus annuus L.) and velvetleaf (Abutilon theophrasti Medik.) were planted and treated preemergence with test chemicals formulated in a non-phytotoxic solvent mixture which included a surfactant.
(§2) At the same time, plants selected from these crop and weed species and also winter barley (Hordeum vulgare L.), blackgrass (Alopecurus myosuroides Huds.), canarygrass (Phalaris minor Retz.), chickweed (Stellaria media (L.) Vill.), downy bromegrass (Bromus tectorum L.), green foxtail (Setaria viridis (L.) Beauv.), Italian ryegrass (Lolium multiflorum Lam.), wheat (Triticum aestivum L.), wild oat (Avenafatua L.) and windgrass (Apera spica-venti (L.) Beauv.) were treated with postemergence applications of some of the test chemicals formulated in the same manner. Plants ranged in height from 2 to 18 cm (1- to 4-leaf stage) for postemergence treatments. Plant species in the flooded paddy test consisted of rice (Oryza sativa), smallflower umbrella sedge (Cyperus difformis L.), ducksalad (Heteranthera limosa (Sw.) Willd.) and barnyardgrass (Echinochloa crus-galli (L.) Beauv.) grown to the 2-leaf stage for testing. Treated plants and controls were maintained in a greenhouse for 12 to 14 days, after which time all species were compared to controls and visually evaluated. Plant response ratings, summarized in Table C, are based on a scale of 0 to 100 where 0 is no effect and 100 is complete control. A dash (-) response means no test result.

bermudagrass = assay: Test C pre-/postemergence herbicide test; format: in vivo, Cynodon dactylon; conditions: for Bermudagrass plant response rating: Preemergence, 500 g ai/ha
Source text: as §1, §2

kochia = assay: Test C pre-/postemergence herbicide test; format: in vivo, Kochia scoparia; conditions: for Plant response rating, Kochia: visual, 12 to 14 days
Source text: as §1, §2

woolly cupgrass = assay: Test C pre-/postemergence herbicide test; format: in vivo, Eriochloa villosa
Source text: as §1, §2

lambsquarters = assay: Test C pre-/postemergence herbicide test; format: in vivo, Chenopodium album; conditions: for Plant response rating, Lambsquarters: visual, 12 to 14 days
Source text: as §1, §2

morningglory = assay: Test C pre-/postemergence herbicide test; format: in vivo, Ipomoea coccinea; parameters: key to Plant response rating, Morningglory: 0 = no effect, 100 = complete control
Source text: as §1, §2

goosegrass = assay: Test C pre-/postemergence herbicide test; format: in vivo, Eleusine indica
Source text: as §1, §2

ducksalad = assay: Test C flooded paddy test; format: in vivo, Heteranthera limosa
[1] = tested on: smallflower umbrella sedge; assay: Test C flooded paddy test; format: in vivo, Cyperus difformis
[2] = 125 g ai/ha, scale 0 (no effect) to 100 (complete control), visual, 12 to 14 days, preemergence
[3] = 250 g ai/ha, scale 0 to 100 (0 no effect, 100 complete control), visual, 12 to 14 days, preemergence
[4] = scale 0 to 100, 0 no effect, 100 complete control
[5] = 125 g ai/ha, scale 0 (no effect) to 100 (complete control), preemergence
[6] = 250 g ai/ha, scale 0 to 100 (0 no effect, 100 complete control), preemergence
[7] = Preemergence, 500 g ai/ha, scale 0 to 100, 0 no effect, 100 complete control
[8] = 62 g ai/ha, preemergence, scale 0 to 100
[9] = 250 g ai/ha, scale 0-100, preemergence
[10] = 500 g ai/ha, scale 0 to 100 (0 no effect, 100 complete control), visual, 12 to 14 days, preemergence
[11] = 62 g ai/ha, scale 0 to 100 (0 no effect, 100 complete control)
[12] = 125 g ai/ha, scale 0 to 100 (0 no effect, 100 complete control)
[13] = 250 g ai/ha, scale of 0 to 100, 0 is no effect, 100 is complete control
[14] = 500 g ai/ha, visual rating after 12 to 14 days, scale 0 to 100 (0 no effect, 100 complete control)

SMILES: CCCn1nc(C(C)(C)C)cc1C(=O)Nc1cccc(C(=O)NCC)c1 [Compound 57]
- Plant response rating (0 = no effect, 100 = complete control), Cocklebur (cocklebur; 62 g ai/ha, preemergence): 0
- Plant response rating, Cocklebur (cocklebur; [2]): 0
- Plant response rating, Cocklebur (cocklebur; [3]): 0
- Cocklebur plant response rating (cocklebur): 0
- Plant response rating (0 = no effect, 100 = complete control), Bermudagrass (bermudagrass; 62 g ai/ha, preemergence): 55
- Plant response rating, Bermudagrass (bermudagrass; [2]): 95
- Plant response rating, Bermudagrass (bermudagrass; [3]): 95
- Bermudagrass plant response rating (bermudagrass; [4]): 100
- Plant response rating (0 = no effect, 100 = complete control), Kochia (kochia; 62 g ai/ha, preemergence): 100
- Plant response rating, Kochia (kochia; [5]): 100
- Plant response rating, Kochia (kochia; [6]): 100
- Kochia plant response rating (kochia; [7]): 100
- Plant response rating (0 = no effect, 100 = complete control), Cupgrass, Woolly (woolly cupgrass; 62 g ai/ha, preemergence): 0
- Plant response rating, Cupgrass, Woolly (woolly cupgrass; [2]): 0
- Plant response rating, Cupgrass, Woolly (woolly cupgrass; [3]): 25
- Cupgrass, Woolly plant response rating (woolly cupgrass; [7]): 70
- Plant response rating (0 = no effect, 100 = complete control), Lambsquarters (lambsquarters; 62 g ai/ha, preemergence): 100
- Plant response rating, Lambsquarters (lambsquarters; [5]): 100
- Plant response rating, Lambsquarters (lambsquarters; [6]): 100
- Lambsquarters plant response rating (lambsquarters; [7]): 100
- Plant response rating (0 = no effect, 100 = complete control), Morningglory (morningglory; 62 g ai/ha, preemergence): 0
- Plant response rating, Morningglory (morningglory; [2]): 0
- Plant response rating, Morningglory (morningglory; [3]): 25
- Morningglory plant response rating (morningglory; [7]): 25
- Plant response rating (0 = no effect, 100 = complete control), Goosegrass (goosegrass; 62 g ai/ha, preemergence): 45
- Plant response rating, Goosegrass (goosegrass; [2]): 75
- Plant response rating, Goosegrass (goosegrass; [3]): 90
- Goosegrass plant response rating (goosegrass; [7]): 90

SMILES: CCn1nc(C(C)(C)C)cc1C(=O)Nc1cc(C(=O)N2CCCC2)ccc1F [Compound 242]
- Plant response rating, Cocklebur (cocklebur; [8]): 0
- Plant response rating, Cocklebur (cocklebur; [2]): 0
- Plant response rating, Cocklebur (cocklebur; [9]): 35
- Cocklebur plant response rating (cocklebur): 50
- Plant response rating, Bermudagrass (bermudagrass; 62 g ai/ha, preemergence, scale 0 to 100, 0 no effect, 100 complete control): 95
- Plant response rating, Bermudagrass (bermudagrass; [2]): 100
- Plant response rating, Bermudagrass (bermudagrass; [9]): 100
- Bermudagrass plant response rating (bermudagrass; [4]): 100
- Plant response rating, Cupgrass, Woolly (woolly cupgrass; [8]): 75
- Plant response rating, Cupgrass, Woolly (woolly cupgrass; [2]): 80
- Plant response rating, Cupgrass, Woolly (woolly cupgrass; [9]): 95
- Plant response rating, Cupgrass, Woolly (woolly cupgrass; [10]): 100
- Ducksalad plant response rating (ducksalad; [11]): 65
- Ducksalad plant response rating (ducksalad; [12]): 95
- Ducksalad plant response rating (ducksalad; [13]): 95
- Plant response rating, Ducksalad (ducksalad; [14]): 95
- Sedge, Umbrella plant response rating [1, 11]: 45
- Sedge, Umbrella plant response rating [1, 12]: 75
- Sedge, Umbrella plant response rating [1, 13]: 85
- Plant response rating, Sedge, Umbrella [1, 14]: 85
- Plant response rating, Morningglory (morningglory; [8]): 0
- Plant response rating, Morningglory (morningglory; [2]): 0
- Plant response rating, Morningglory (morningglory; [9]): 0
- Plant response rating, Morningglory (morningglory; [10]): 15
- Plant response rating, Goosegrass (goosegrass; [8]): 100
- Plant response rating, Goosegrass (goosegrass; [2]): 100
- Plant response rating, Goosegrass (goosegrass; [9]): 100
- Plant response rating, Goosegrass (goosegrass; [10]): 100
